The values below come from ChEMBL document CHEMBL4052716, “Discovery and development of a novel class of phenoxyacetyl amides as highly potent TRPM8 agonists for use as cooling agents” (Bioorg Med Chem Lett, 2017).

In brackets after ≈: the same amount, converted by molar mass. Activity calls are given as the source filed them. The calls are words filed in the database; no cut-off is given here.

The first series concerns the target T1, Transient receptor potential cation channel subfamily M member 8 (Homo sapiens, UniProt Q7Z2W7). Briefly: Potency index, ratio of WS-3 EC50 to compound EC50 for human TRPM8 receptor.
Conditions: not given
Target sequence in this assay (Q7Z2W7 whole entry, looked up): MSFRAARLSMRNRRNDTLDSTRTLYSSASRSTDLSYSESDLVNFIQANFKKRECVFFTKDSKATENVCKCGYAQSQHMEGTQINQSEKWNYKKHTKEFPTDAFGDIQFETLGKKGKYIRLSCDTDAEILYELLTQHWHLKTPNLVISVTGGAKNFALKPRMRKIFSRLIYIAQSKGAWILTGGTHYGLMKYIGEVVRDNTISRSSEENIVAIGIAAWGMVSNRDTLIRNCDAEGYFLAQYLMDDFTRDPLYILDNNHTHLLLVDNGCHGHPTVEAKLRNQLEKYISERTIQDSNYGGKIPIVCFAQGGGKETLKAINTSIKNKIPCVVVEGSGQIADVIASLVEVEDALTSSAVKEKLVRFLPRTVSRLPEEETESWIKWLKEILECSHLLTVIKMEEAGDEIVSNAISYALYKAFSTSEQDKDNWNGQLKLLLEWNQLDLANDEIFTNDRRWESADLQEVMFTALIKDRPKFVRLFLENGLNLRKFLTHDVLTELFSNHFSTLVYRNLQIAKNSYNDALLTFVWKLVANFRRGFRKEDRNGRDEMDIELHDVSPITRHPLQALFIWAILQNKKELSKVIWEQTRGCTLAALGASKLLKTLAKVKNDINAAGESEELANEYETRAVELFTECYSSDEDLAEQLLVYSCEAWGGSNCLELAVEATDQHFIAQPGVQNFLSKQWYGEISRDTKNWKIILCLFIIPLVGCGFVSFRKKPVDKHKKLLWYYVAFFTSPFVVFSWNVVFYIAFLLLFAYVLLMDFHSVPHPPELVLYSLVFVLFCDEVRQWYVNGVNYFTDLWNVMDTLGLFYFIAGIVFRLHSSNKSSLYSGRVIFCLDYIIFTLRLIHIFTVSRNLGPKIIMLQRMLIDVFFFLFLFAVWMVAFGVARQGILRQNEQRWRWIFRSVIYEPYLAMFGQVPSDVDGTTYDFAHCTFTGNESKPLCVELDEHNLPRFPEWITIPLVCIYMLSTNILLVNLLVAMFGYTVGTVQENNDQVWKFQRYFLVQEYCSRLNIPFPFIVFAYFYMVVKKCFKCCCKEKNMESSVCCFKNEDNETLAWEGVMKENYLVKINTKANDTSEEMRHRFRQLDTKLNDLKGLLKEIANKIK
In the case of `Cc1ccc(OCC(=O)N(Cc2cccs2)c2ncco2)cc1`, the Ratio EC50 was 120000.

As for `CCN(Cc1cccs1)C(=O)COc1ccc(C)cc1`, the Ratio EC50 was 620.

Consider `Cc1ccc(OCC(=O)N(Cc2cccs2)c2ccon2)cc1`, for which the Ratio EC50 turned out to be 3440.

For `Cc1ccc(/C=C/C(=O)N(Cc2cccs2)c2ccn[nH]2)cc1`, the Ratio EC50 was greater than 1e+06.

For the compound `Cc1ccc(OCC(=O)N(Cc2cccs2)c2ccnn2C)cc1`, the Ratio EC50 came out at 14.

In the case of `CCN(Cc1cccs1)C(=O)COc1ccc2c(c1)COC2`, the Ratio EC50 was determined as 58.

For the compound `CCN(Cc1cccs1)C(=O)COc1ccc2c(c1)CCC2`, the Ratio EC50 was found to be 7680.

As for `CCN(Cc1cccs1)C(=O)COc1cc(C)ccc1O`, the Ratio EC50 worked out at 180.

As for `CCN(Cc1cccs1)C(=O)c1cc2cc(OC)ccc2o1`, the Ratio EC50 amounted to 164.

In the case of `O=C(COc1ccc2c(c1)CCC2)N(Cc1cccs1)c1ccn[nH]1`, the Ratio EC50 is greater than 1e+06.

Take `Cc1ccc(OCC(=O)N(Cc2cccs2)c2ccn[nH]2)cc1`: the Ratio EC50 came to 35800.

Consider `Cc1ccc(OCC(=O)N(Cc2cccs2)c2c[nH]nc2C)cc1`, for which the Ratio EC50 was found to be 10700.

As for `C=CCN(Cc1cccs1)C(=O)COc1ccc(C)cc1`, the Ratio EC50 was 365.

On to `Cc1ccc(OCC(=O)N(Cc2cccs2)c2ccccn2)cc1`, for which the Ratio EC50 came to 25.

For `Cc1ccc2oc(C(=O)N(Cc3cccs3)c3ccn[nH]3)cc2c1`, the Ratio EC50 is greater than 1e+06.

As for `CCN(Cc1cccs1)C(=O)c1cc2cc(C)ccc2o1`, the Ratio EC50 came to 42.

System in the next series: not listed separately
Briefly: Stability of the compound in pH 2.8 citric acid assessed as compound remaining after heating at 100 degC for 24 hrs. Format: physicochemical. As to conditions: read-out: Stability.
Take `Cc1ccc(OCC(=O)N(Cc2cccs2)c2ncco2)cc1`: the remaining at 24 h was found to be 14.9%.

Regarding `Cc1ccc(OCC(=O)N(Cc2cccs2)c2ccon2)cc1`, the remaining at 24 h turned out to be 90.8%.

The species entered for the next series is Homo sapiens. Nature of the series: Induction of off-taste response in rained human subjects during cooling sensation study.
Conditions: not given
Regarding `Cc1ccc(OCC(=O)N(Cc2cccs2)c2ccn[nH]2)cc1`, the Activity entry is on record as “Non-Toxic”.

A further series is filed under the species Homo sapiens. Nature of the series: Induction of off-taste response in rained human subjects assessed as induction of bitterness during cooling sensation study.
Conditions: not given
For `Cc1ccc(OCC(=O)N(Cc2cccs2)c2ccnn2C)cc1`, the Activity entry was “Toxic”.

The next series deals with Homo sapiens. Briefly: In vivo agonist activity at human TRPM8 in trained human subjects assessed as time duration of perceived cooling effect at 45 uM dosed as aqueous solution. The format is functional.
Conditions: not given
`CCNC(=O)[C@@H]1C[C@H](C)CC[C@H]1C(C)C`: the Time was determined as 25 min.

For the next series, the system named is Homo sapiens. Nature of the series: In vivo agonist activity at human TRPM8 in trained human subjects assessed as time duration of perceived cooling effect at 3 uM dosed as aqueous solution. The format is functional.
Conditions: not given
Take `Cc1ccc(OCC(=O)N(Cc2cccs2)c2ccn[nH]2)cc1`: the Time is recorded as 60 min.

The next series addresses T1, Transient receptor potential cation channel subfamily M member 8. Briefly: Agonist activity at human TRPM8 expressed in HEK293 cells assessed as increase in intracellular calcium level after 15 mins by Fluo-3-AM dye-based fluorescence assay. Format: cell-based. The conditions noted are these: read-out: EC50. (A change in cytosolic calcium serves as a functional read-out for many receptors and channels.)
Target sequence in this assay (Q7Z2W7 whole entry): as the sequence (Q7Z2W7 whole entry, looked up) above
As usually defined, the EC50 is the concentration needed to bring the measured effect to its halfway point. With `Cc1ccc(OCC(=O)N(Cc2cccs2)c2ncco2)cc1`, the EC50 is 0.3 nM.

Take `CCN(Cc1cccs1)C(=O)COc1ccc(C)cc1`: the EC50 stood at 8 nM.

Take `Cc1ccc(OCC(=O)N(Cc2cccs2)c2ccon2)cc1`: the EC50 is 2 nM.

Turning to `Cc1ccc(/C=C/C(=O)N(Cc2cccs2)c2ccn[nH]2)cc1`, the EC50 is 0.004 nM.

For the compound `Cc1ccc(OCC(=O)N(Cc2cccs2)c2ccnn2C)cc1`, the EC50 was 422 nM.

In the case of `CCN(Cc1cccs1)C(=O)COc1ccc2c(c1)COC2`, the EC50 amounted to 61 nM.

With `CCN(Cc1cccs1)C(=O)COc1ccc2c(c1)CCC2`, the concentration for a half-maximal effect (EC50) was 0.8 nM.

As for `CCN(Cc1cccs1)C(=O)COc1cc(C)ccc1O`, the EC50 stood at 24 nM.

With `CCN(Cc1cccs1)C(=O)c1cc2cc(OC)ccc2o1`, the concentration for a half-maximal effect (EC50) came to 80 nM.

Consider `O=C(COc1ccc2c(c1)CCC2)N(Cc1cccs1)c1ccn[nH]1`, for which the EC50 came out at 0.001 nM.

Regarding `Cc1ccc(OCC(=O)N(Cc2cccs2)c2ccn[nH]2)cc1`, the EC50 was found to be 0.2 nM.

For `Cc1ccc(OCC(=O)N(Cc2cccs2)c2c[nH]nc2C)cc1`, the EC50 stood at 0.4 nM.

`C=CCN(Cc1cccs1)C(=O)COc1ccc(C)cc1`: the EC50 turned out to be 20 nM.

`Cc1ccc(OCC(=O)N(Cc2cccs2)c2ccccn2)cc1`: the EC50 was 200 nM.

For `Cc1ccc2oc(C(=O)N(Cc3cccs3)c3ccn[nH]3)cc2c1`, the EC50 amounted to 40 nM.

As to `CCN(Cc1cccs1)C(=O)c1cc2cc(C)ccc2o1`, the EC50 is 120 nM.

System in another series: not listed separately
Briefly: Permeability of the compound assessed as drug transport by PAMPA.
Conditions: not given
The format is physicochemical. Background: The PAMPA barrier holds no transporters, so it reflects passive diffusion.
In the case of `CCN(Cc1cccs1)C(=O)COc1ccc(C)cc1`, the Drug transport is listed as 12%.

As for `Cc1ccc(/C=C/C(=O)N(Cc2cccs2)c2ccn[nH]2)cc1`, the Drug transport is 5%.

Consider `CCN(Cc1cccs1)C(=O)COc1ccc2c(c1)COC2`, for which the Drug transport amounted to 33%.

Regarding `CCN(Cc1cccs1)C(=O)COc1ccc2c(c1)CCC2`, the Drug transport was 3%.

Take `CCN(Cc1cccs1)C(=O)c1cc2cc(OC)ccc2o1`: the Drug transport is 1%.

Take `O=C(COc1ccc2c(c1)CCC2)N(Cc1cccs1)c1ccn[nH]1`: the Drug transport worked out at 5%.

For the compound `Cc1ccc(OCC(=O)N(Cc2cccs2)c2ccn[nH]2)cc1`, the Drug transport came to 10%.

Regarding `CCN(Cc1cccs1)C(=O)c1cc2cc(C)ccc2o1`, the Drug transport is reported as 2%.

System in another series: not listed separately
Briefly: Stability of the compound in pH 7.1 phosphoric acid assessed as compound remaining after heating at 100 degC for 24 hrs. The format is physicochemical. As to conditions: read-out: Stability.
For the compound `Cc1ccc(OCC(=O)N(Cc2cccs2)c2ncco2)cc1`, the remaining at 24 h is 0.1%.

With `Cc1ccc(OCC(=O)N(Cc2cccs2)c2ccon2)cc1`, the remaining at 24 h is 0.5%.

System in another series: not listed separately
Nature of the series: Stability of the compound in pH 4.0 citric acid assessed as compound remaining after heating at 100 degC for 24 hrs. The conditions noted are these: read-out: Stability. Format: physicochemical.
`Cc1ccc(OCC(=O)N(Cc2cccs2)c2ncco2)cc1`: the remaining at 24 h stood at 73.7%.

With `Cc1ccc(OCC(=O)N(Cc2cccs2)c2ccon2)cc1`, the remaining at 24 h amounted to 78.1%.

A further series relates to Homo sapiens. Nature of the series: In vivo agonist activity at human TRPM8 in trained human subjects assessed as concentration required to deliver cooling sensation equivalent to 45 uM WS-3 by measuring cooling intensity. The format is functional.
Conditions: not given
Take `CCN(Cc1cccs1)C(=O)COc1ccc(C)cc1`: the Activity stood at 5 µM.

`Cc1ccc(/C=C/C(=O)N(Cc2cccs2)c2ccn[nH]2)cc1`: the Activity was 3 µM.

As to `Cc1ccc(OCC(=O)N(Cc2cccs2)c2ccnn2C)cc1`, the result was inactive.

For the compound `CCN(Cc1cccs1)C(=O)COc1ccc2c(c1)COC2`, the Activity came out at 5 µM.

As to `CCN(Cc1cccs1)C(=O)COc1ccc2c(c1)CCC2`, the Activity was found to be 3 µM.

On to `CCN(Cc1cccs1)C(=O)COc1cc(C)ccc1O`, for which the Activity was found to be 5 µM.

For `CCN(Cc1cccs1)C(=O)c1cc2cc(OC)ccc2o1`, the Activity was 5 µM.

For `O=C(COc1ccc2c(c1)CCC2)N(Cc1cccs1)c1ccn[nH]1`, the Activity turned out to be 3 µM.

As to `Cc1ccc(OCC(=O)N(Cc2cccs2)c2ccn[nH]2)cc1`, the Activity is 3 µM.

As for `Cc1ccc(OCC(=O)N(Cc2cccs2)c2c[nH]nc2C)cc1`, the Activity is greater than 5 µM.

For the compound `C=CCN(Cc1cccs1)C(=O)COc1ccc(C)cc1`, the Activity stood at 5 µM.

With `Cc1ccc(OCC(=O)N(Cc2cccs2)c2ccccn2)cc1`, the Activity was determined as 15 µM.

For the compound `Cc1ccc2oc(C(=O)N(Cc3cccs3)c3ccn[nH]3)cc2c1`, the Activity is 4 µM.

Turning to `CCN(Cc1cccs1)C(=O)c1cc2cc(C)ccc2o1`, the Activity stood at 10 µM.

System in another series: not listed separately
Nature of the series: Thermodynamic solubility of the compound in pH 7.1 phosphoric buffer. Format: physicochemical. As to conditions: read-out: Therm_solubility.
On to `CCN(Cc1cccs1)C(=O)COc1ccc(C)cc1`, for which the solubility thermodynamic worked out at 545 µM (≈ 158 µg/mL).

Take `Cc1ccc(/C=C/C(=O)N(Cc2cccs2)c2ccn[nH]2)cc1`: the solubility thermodynamic worked out at 3.7 µM (≈ 1.2 µg/mL).

For the compound `CCN(Cc1cccs1)C(=O)COc1ccc2c(c1)COC2`, the solubility thermodynamic was found to be 571 µM (≈ 181 µg/mL).

`CCN(Cc1cccs1)C(=O)COc1ccc2c(c1)CCC2`: the solubility thermodynamic is 85 µM (≈ 26.8 µg/mL).

`CCN(Cc1cccs1)C(=O)c1cc2cc(OC)ccc2o1`: the solubility thermodynamic amounted to 49 µM (≈ 15.5 µg/mL).

In the case of `O=C(COc1ccc2c(c1)CCC2)N(Cc1cccs1)c1ccn[nH]1`, the solubility thermodynamic worked out at 26 µM (≈ 9.19 µg/mL).

As for `Cc1ccc(OCC(=O)N(Cc2cccs2)c2ccn[nH]2)cc1`, the solubility thermodynamic was 189 µM (≈ 61.9 µg/mL).

For `CCN(Cc1cccs1)C(=O)c1cc2cc(C)ccc2o1`, the solubility thermodynamic is 27 µM (≈ 8.08 µg/mL).
